Reference: patent publication US8551978B2 (Theravance, Inc., priority 2009, dated 2013)
Read-outs that look alike come from different tables or passages of the source.

Experiments:
[1] = tested on: MCh-induced bronchoconstriction; experiment: Einthoven assay: bronchoprotection against methacholine (MCh)-induced bronchoconstriction; assay type: in vivo, rat; conditions: rat, 100 μg by inhalation, 24 h after administration; for inhibition in vivo at 0.1 mg: inhaled or nasal, read-out: Broncho. at 24 h
Procedure, shortened: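 Male Sprague-Dawley rats received 100 μg compound (unless stated) or water vehicle by 10-min inhalation. At set times, anesthetized, ventilated rats were challenged with IV MCh at 40 and 80 μg/kg (2.5-min infusions). Ventilation-pressure rise is expressed as % inhibition versus vehicle controls.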

hβ2 adrenergic receptor = hβ2 adrenergic receptor (Homo sapiens (Human), UniProt P07550); experiment: Assay for determining adrenergic receptor agonist potency (cAMP Flashplate, HEK-293 cells); assay type: cell-based; conditions: data rounded to nearest 1 nM
Sequence of hβ2 adrenergic receptor (P07550 whole entry): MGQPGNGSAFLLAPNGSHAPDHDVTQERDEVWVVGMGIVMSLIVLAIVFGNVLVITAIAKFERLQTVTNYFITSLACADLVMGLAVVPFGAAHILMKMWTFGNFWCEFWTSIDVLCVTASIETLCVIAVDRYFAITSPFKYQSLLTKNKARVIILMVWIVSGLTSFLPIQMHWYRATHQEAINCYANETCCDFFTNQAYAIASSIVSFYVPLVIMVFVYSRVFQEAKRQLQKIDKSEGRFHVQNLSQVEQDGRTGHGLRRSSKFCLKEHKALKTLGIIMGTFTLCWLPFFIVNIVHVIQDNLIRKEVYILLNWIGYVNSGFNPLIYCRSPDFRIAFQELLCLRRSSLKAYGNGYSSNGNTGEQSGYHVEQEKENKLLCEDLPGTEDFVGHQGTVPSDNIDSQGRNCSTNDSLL

hM3 muscarinic receptor = hM3 muscarinic receptor (Homo sapiens (Human), UniProt P20309); experiment: Radioligand binding assay for muscarinic receptors ([3H]-NMS displacement, CHO cell membranes)
Sequence of hM3 muscarinic receptor (P20309 whole entry): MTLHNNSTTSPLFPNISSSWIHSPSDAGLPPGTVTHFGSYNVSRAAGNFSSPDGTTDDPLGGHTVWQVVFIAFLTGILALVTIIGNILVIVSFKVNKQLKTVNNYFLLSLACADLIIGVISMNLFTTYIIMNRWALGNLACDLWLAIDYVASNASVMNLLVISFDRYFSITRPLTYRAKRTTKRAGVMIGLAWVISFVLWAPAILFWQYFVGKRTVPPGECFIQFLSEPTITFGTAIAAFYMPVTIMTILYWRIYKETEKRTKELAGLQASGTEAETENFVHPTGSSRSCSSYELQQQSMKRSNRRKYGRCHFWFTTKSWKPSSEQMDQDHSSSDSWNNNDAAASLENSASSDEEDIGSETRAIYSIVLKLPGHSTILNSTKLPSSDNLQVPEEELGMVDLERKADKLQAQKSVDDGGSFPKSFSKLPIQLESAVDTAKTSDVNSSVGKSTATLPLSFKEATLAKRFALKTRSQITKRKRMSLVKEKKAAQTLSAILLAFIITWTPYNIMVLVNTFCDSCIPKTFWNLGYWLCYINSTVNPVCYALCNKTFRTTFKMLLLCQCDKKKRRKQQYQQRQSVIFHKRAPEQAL
Procedure, shortened: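 [3H]-NMS displacement used homogenized CHO membranes, with test compounds at final concentrations of […]. Plates were incubated 6 hours at 37 °C, then filtered and read by liquid scintillation counting. A one-site competition fit gave values that were converted to Ki.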

[2] = hM3 Muscarinic Receptor Binding, data rounded to nearest 0.1 nM

Compound	Broncho. at 24 h [1]	EC50 (hβ2 adrenergic receptor)	Ki (hM3 muscarinic receptor; [2])	inhibition in vivo at 0.1 mg [1]	Ki (hM3 muscarinic receptor)
Cc1ccc(C(=O)NCc2cccc(CC(C)NC[C@H](O)c3ccc(O)c4[nH]c(=O)ccc34)c2)cc1N(C)C(=O)CCN1CCC(OC(=O)Nc2ccccc2-c2ccccc2)CC1 (stereo partly drawn) [Compound I-45]	No	1 nM	0.2 nM		
CC(Cc1ccc(CNC(=O)c2cccc(N(C)C(=O)CCN3CCC(OC(=O)Nc4ccccc4-c4ccccc4)CC3)c2)cc1)NC[C@H](O)c1ccc(O)c2[nH]c(=O)ccc12 (stereo partly drawn) [Compound I-46]		1 nM		> 30%	0.1 nM
C[C@H](Cc1ccc(CNC(=O)c2cccc(N(C)C(=O)CCN3CCC(OC(=O)Nc4ccccc4-c4ccccc4)CC3)c2)cc1)NC[C@H](O)c1ccc(O)c2[nH]c(=O)ccc12 [Compound I-48]		1 nM		> 30%	0.3 nM
C[C@@H](Cc1ccc(CNC(=O)c2cccc(N(C)C(=O)CCN3CCC(OC(=O)Nc4ccccc4-c4ccccc4)CC3)c2)cc1)NC[C@H](O)c1ccc(O)c2[nH]c(=O)ccc12 [Compound I-49]		1 nM		> 30%	0.1 nM
CC(Cc1cccc(CC(=O)Nc2cccc(N(C)C(=O)CCN3CCC(OC(=O)Nc4ccccc4-c4ccccc4)CC3)c2)c1)NC[C@H](O)c1ccc(O)c2[nH]c(=O)ccc12 (stereo partly drawn) [Compound I-52]	No	1 nM			0.2 nM
CC(Cc1ccc(CC(=O)Nc2cccc(N(C)C(=O)CCN3CCC(OC(=O)Nc4ccccc4-c4ccccc4)CC3)c2)cc1)NC[C@H](O)c1ccc(O)c2[nH]c(=O)ccc12 (stereo partly drawn) [Compound I-53]	No	1 nM			0.1 nM
C[C@H](Cc1cccc(CCNC(=O)c2ccc(N(C)C(=O)CCN3CCC(OC(=O)Nc4ccccc4-c4ccccc4)CC3)cc2)c1)NC[C@H](O)c1ccc(O)c2[nH]c(=O)ccc12 [Compound I-55]		1 nM	0.2 nM	> 30%	
C[C@@H](Cc1cccc(CCNC(=O)c2ccc(N(C)C(=O)CCN3CCC(OC(=O)Nc4ccccc4-c4ccccc4)CC3)cc2)c1)NC[C@H](O)c1ccc(O)c2[nH]c(=O)ccc12 [Compound I-56]	No	1 nM	0.2 nM		
COc1cc(NC(=O)Cc2cccc(N(C)C(=O)CCN3CCC(OC(=O)Nc4ccccc4-c4ccccc4)CC3)c2)c(Cl)cc1CNC[C@H](O)c1ccc(O)c2[nH]c(=O)ccc12 [Compound I-61]		1 nM	0.1 nM	> 30%	
CN(C(=O)CCN1CCC(OC(=O)Nc2ccccc2-c2ccccc2)CC1)c1ccc(CC(=O)NCc2ccc(CCNC[C@H](O)c3ccc(O)c4[nH]c(=O)ccc34)cc2)cc1 [Compound I-64]	No	1 nM	0.3 nM		
CN(C(=O)CCN1CCC(OC(=O)Nc2ccccc2-c2ccccc2)CC1)c1ccc(CC(=O)NCc2cccc(CCNC[C@H](O)c3ccc(O)c4[nH]c(=O)ccc34)c2)cc1 [Compound I-65]		1 nM		> 30%	0.1 nM
CC(Cc1ccc(CNC(=O)Cc2ccc(N(C)C(=O)CCN3CCC(OC(=O)Nc4ccccc4-c4ccccc4)CC3)cc2)cc1)NC[C@H](O)c1ccc(O)c2[nH]c(=O)ccc12 (stereo partly drawn) [Compound I-66]	No	1 nM			0.2 nM
CC(Cc1ccc(CNC(=O)Cc2ccc(N(C)C(=O)CCN3CCC(OC(=O)Nc4ccccc4-c4ccccc4)CC3)cc2)cc1)NC[C@H](O)c1ccc(O)c2[nH]c(=O)ccc12 (stereo partly drawn) [Compound I-67]		1 nM		> 30%	0.1 nM
C[C@H](Cc1cccc(CNC(=O)Cc2ccc(N(C)C(=O)CCN3CCC(OC(=O)Nc4ccccc4-c4ccccc4)CC3)cc2)c1)NC[C@H](O)c1ccc(O)c2[nH]c(=O)ccc12 [Compound I-68]		1 nM		> 30%	0.1 nM
C[C@@H](Cc1cccc(CNC(=O)Cc2ccc(N(C)C(=O)CCN3CCC(OC(=O)Nc4ccccc4-c4ccccc4)CC3)cc2)c1)NC[C@H](O)c1ccc(O)c2[nH]c(=O)ccc12 [Compound I-69]		1 nM		> 30%	0.1 nM
CC(Cc1cccc(CC(=O)NCc2ccc(N(C)C(=O)CCN3CCC(OC(=O)Nc4ccccc4-c4ccccc4)CC3)cc2)c1)NC[C@H](O)c1ccc(O)c2[nH]c(=O)ccc12 (stereo partly drawn) [Compound I-77]		1 nM		> 30%	0.1 nM
C[C@H](Cc1cccc(CC(=O)NCc2ccc(N(C)C(=O)CCN3CCC(OC(=O)Nc4ccccc4-c4ccccc4)CC3)cc2)c1)NC[C@H](O)c1ccc(O)c2[nH]c(=O)ccc12 [Compound I-78]		1 nM		> 30%	0.3 nM
C[C@@H](Cc1cccc(CC(=O)NCc2ccc(N(C)C(=O)CCN3CCC(OC(=O)Nc4ccccc4-c4ccccc4)CC3)cc2)c1)NC[C@H](O)c1ccc(O)c2[nH]c(=O)ccc12 [Compound I-79]	No	1 nM			0.1 nM
CC(Cc1ccc(CC(=O)NCc2ccc(N(C)C(=O)CCN3CCC(OC(=O)Nc4ccccc4-c4ccccc4)CC3)cc2)cc1)NC[C@H](O)c1ccc(O)c2[nH]c(=O)ccc12 (stereo partly drawn) [Compound I-80]	No	1 nM	0.2 nM		
COc1ccc(CC(=O)NCc2ccc(N(C)C(=O)CCN3CCC(OC(=O)Nc4ccccc4-c4ccccc4)CC3)cc2)cc1CC(C)NC[C@H](O)c1ccc(O)c2[nH]c(=O)ccc12 (stereo partly drawn) [Compound I-81]		1 nM	0.1 nM	> 30%	
COc1ccc(CC(=O)NCc2ccc(N(C)C(=O)CCN3CCC(OC(=O)Nc4ccccc4-c4ccccc4)CC3)cc2)cc1C[C@@H](C)NC[C@H](O)c1ccc(O)c2[nH]c(=O)ccc12 [Compound I-82]		1 nM	0.1 nM	> 30%	
COc1ccc(CC(=O)NCc2ccc(N(C)C(=O)CCN3CCC(OC(=O)Nc4ccccc4-c4ccccc4)CC3)cc2)cc1C[C@H](C)NC[C@H](O)c1ccc(O)c2[nH]c(=O)ccc12 [Compound I-83]		2 nM	0.2 nM	> 30%	
CC(Cc1ccc(CCNC(=O)Cc2ccc(N(C)C(=O)CCN3CCC(OC(=O)Nc4ccccc4-c4ccccc4)CC3)cc2)cc1)NC[C@H](O)c1ccc(O)c2[nH]c(=O)ccc12 (stereo partly drawn) [Compound I-88]		1 nM		> 30%	0.1 nM
C[C@@H](Cc1ccc(CCNC(=O)Cc2ccc(N(C)C(=O)CCN3CCC(OC(=O)Nc4ccccc4-c4ccccc4)CC3)cc2)cc1)NC[C@H](O)c1ccc(O)c2[nH]c(=O)ccc12 [Compound I-89]		1 nM		> 30%	0.1 nM
CC(Cc1cccc(CCC(=O)NCc2ccc(N(C)C(=O)CCN3CCC(OC(=O)Nc4ccccc4-c4ccccc4)CC3)cc2)c1)NC[C@H](O)c1ccc(O)c2[nH]c(=O)ccc12 (stereo partly drawn) [Compound I-91]		1 nM		> 30%	0.2 nM
C[C@H](Cc1cccc(CCC(=O)NCc2ccc(N(C)C(=O)CCN3CCC(OC(=O)Nc4ccccc4-c4ccccc4)CC3)cc2)c1)NC[C@H](O)c1ccc(O)c2[nH]c(=O)ccc12 [Compound I-92]		1 nM		> 30%	0.2 nM
COc1ccc(CC(C)NC[C@H](O)c2ccc(O)c3[nH]c(=O)ccc23)cc1CC(=O)NCc1ccc(N(C)C(=O)CCN2CCC(OC(=O)Nc3ccccc3-c3ccccc3)CC2)cc1 (stereo partly drawn) [Compound I-94]		1 nM	0.1 nM	> 30%	
CC(Cc1ccc(F)c(CC(=O)NCc2ccc(N(C)C(=O)CCN3CCC(OC(=O)Nc4ccccc4-c4ccccc4)CC3)cc2)c1)NC[C@H](O)c1ccc(O)c2[nH]c(=O)ccc12 (stereo partly drawn) [Compound I-95]		1 nM		> 30%	0.2 nM
